Patent US20100047776A1, “Cell-based screening assays for compounds that regulate the expresion of a tumor marker dj-1” (Caritas St. Elizabeth Medical Center of Boston Inc., priority 2005, published 2010)

Legend:
human DJ-1 promoter = assay: DJ-1 promoter luciferase reporter assay in SH-SY5Y cells stably expressing −1000DJ-Luc; type: cell-based; details: SH-SY5Y cells stably expressing −1000DJ-Luc and CMV-β-galactosidase; increasing doses of H2O2 for 24 hours; untreated sample designated as 100; FIG. 2
From the text: (§1) To develop a cell-based assay system where one can identify agents that transcriptionally modulate DJ-1, a plasmid vector (−1000DJ-Luc) was made that expressed a luciferase reporter gene directed by the human DJ-1 promoter containing 1000 base pairs upstream and 65 base pairs downstream sequences (−1000 to +65) of the transcription initiation site (FIG. 1). A […] sequence containing +46 to +65 of the DJ-1 gene was fused to the luciferase gene to generate the control plasmid (0DJLuc). A neomycin resistance gene was inserted into the vectors as a selection marker.
(§2) Using the vector described in Example 1, human SH-SY5Y neuroblastoma cells were transfected with either −1000DJLuc or 0DJLuc; stably transfected clones were subsequently identified. A plasmid encoding β-galactosidase gene was co-transfected to serve as an internal control for luciferase expression.
(§3) To confirm the stable expression of the reporter genes and to evaluate these cells as devices for drug discovery, stably transfected SH-SY5Y cells were treated with increasing doses of H2O2, which has been reported to upregulate DJ-1. […] Luciferase and β-galactosidase activities were then determined. […]
(§4) C. […] Luciferase and β-galactosidase activities were determined using assay kits following manufacturer's protocol (Promega).

[1] = system: 0DJ-Luc (luciferase gene lacking the DJ-1 promoter sequence); assay: Luciferase reporter assay in control cell lines expressing 0DJ-Luc; type: cell-based, human; details: H2O2 treatment
From the text: as §1, §2, §3, §4

OO [H2O2]
Luciferase activity normalized to β-galactosidase activity (human DJ-1 promoter activation) (human DJ-1 promoter): activated the human DJ-1 promoter in a dose dependent manner
Luciferase activity in control cell lines expressing 0DJ-Luc [1]: not affected
